Test results published in PubChem BioAssay AID624446 (The Scripps Research Institute Molecular Screening Center, 2012).
Activity calls are given as the source filed them.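 Rule for the calls: active = compounds blocking protein phosphatase 1 with half-maximal inhibitory concentration IC50 under 50 µM; inactive = IC50 of 50 µM or more.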

Target: Serine/threonine-protein phosphatase PP1-alpha catalytic subunit (Homo sapiens) (UniProt P62136)
Assay: dose-dependent inhibition of PP1 catalytic subunit – biochemical, 32P-phosphohistone, radiolabel, dose response, round 5, selectivity assay for PP5 inhibitor project, late-stage follow-up (AID 624446)
Conditions: purified PP1alpha, 32P-phosphohistone dephosphorylation, scintillation

Sequence of Serine/threonine-protein phosphatase PP1-alpha catalytic subunit (Homo sapiens) (P62136 whole entry, looked up): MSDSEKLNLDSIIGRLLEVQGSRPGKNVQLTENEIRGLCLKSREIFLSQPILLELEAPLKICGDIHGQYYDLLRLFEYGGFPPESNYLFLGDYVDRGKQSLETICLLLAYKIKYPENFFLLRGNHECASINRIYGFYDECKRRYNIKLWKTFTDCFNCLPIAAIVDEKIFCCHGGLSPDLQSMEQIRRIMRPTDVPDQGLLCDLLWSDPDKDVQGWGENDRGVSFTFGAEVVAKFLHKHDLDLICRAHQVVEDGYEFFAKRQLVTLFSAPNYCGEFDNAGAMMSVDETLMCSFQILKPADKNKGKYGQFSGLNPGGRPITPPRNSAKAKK

- IC50: inactive
Compound: CC(C)Oc1ccccc1-c1n[nH]nc1C(=O)O
